Laboratory results: publication PMC9653751, “Chemical Composition and Antioxidant, Antimicrobial, and Anti-Inflammatory Properties of Origanum compactum Benth Essential Oils from Two Regions: In Vitro and In Vivo Evidence and In Silico Molecular Investigations” (Molecules, 2022)

Biological target: T1, Tyrosinase
T1 construct: gene PPO3
Assay: tyrosinase inhibition assay, details only by reference
Type: biochemical
Conditions: substrate and pH not given
From the text: tyrosinase inhibition assay, details only by reference on Tyrosinase

O=c1c(O)c(-c2ccc(O)c(O)c2)oc2cc(O)cc(O)c12 [Quercetin]
Quercetin: 39.62 ± 0.05 µg/mL
